Results on 1 compound are retold here after ChEMBL document CHEMBL6178018, “Design of an Oral STING Agonist through Intramolecular Hydrogen Bond Ring Mimicking to Achieve Complete Tumor Regression” (J Med Chem, 2025).

The structures appear in SMILES notation. Active and inactive are the calls of the source. The rule behind the calls is not given here.

Data set [1] can be described thus: Clearance in mouse at 5 mg/kg, iv by LC-MS/MS analysis. Format: ADME, organism-based. The note with it: in vivo.
Data set [2] is described as follows: Cmax in mouse at 5 mg/kg, iv by LC-MS/MS analysis. Format: ADME, organism-based. The note with it: in vivo.
Data set [3] can be described thus: AUC in mouse at 5 mg/kg, iv by LC-MS/MS analysis. Format: ADME, organism-based. The note with it: in vivo.
Data set [4] is described as follows: AUC in mouse at 10 mg/kg, po by LC-MS/MS analysis. Format: ADME, organism-based. The note with it: in vivo.
In data set [5] the test system is MC-38. Kind of data set: In vivo antitumor activity against mouse MC-38 cells inoculated in C57BL/6 mouse assessed as as increase in moue survival time at 60 mg/kg, po Q3D measured for 15 to 20 days. Format: functional, organism-based. The following applies: time 15-20 day.
The target in data set [6] is T1, Stimulator of interferon genes protein (Mus musculus, UniProt Q3TBT3).
T1 sequence (Q3TBT3 whole entry): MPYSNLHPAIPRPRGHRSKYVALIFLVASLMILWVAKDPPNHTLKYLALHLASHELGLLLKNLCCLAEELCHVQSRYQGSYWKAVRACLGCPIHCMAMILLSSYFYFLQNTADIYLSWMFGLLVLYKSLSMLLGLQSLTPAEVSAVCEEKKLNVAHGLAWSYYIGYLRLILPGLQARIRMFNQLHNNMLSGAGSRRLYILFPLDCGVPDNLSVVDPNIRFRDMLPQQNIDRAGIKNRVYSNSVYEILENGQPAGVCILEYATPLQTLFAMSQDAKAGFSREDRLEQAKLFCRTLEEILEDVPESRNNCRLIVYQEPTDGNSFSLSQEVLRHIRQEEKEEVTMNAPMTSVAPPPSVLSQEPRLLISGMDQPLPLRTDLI
The data set can be described thus: Agonist activity at mouse STING expressed in human THP1-Dual cells assessed as fold change in stimulation activity measured after 24 hrs incubation by QUANTI-Luc4 based microplate reader. Format: cell-based.

Data set [7] deals with T2, Stimulator of interferon genes protein (Homo sapiens, UniProt Q86WV6). The data set can be described thus: Binding affinity to wild type His-tagged STING (unknown origin) measured after 3 hrs incubation by HTRF assay. (TR-FRET usually uses a lanthanide donor and a delayed reading to cut background.)
Target sequence in this assay (Q86WV6 whole entry): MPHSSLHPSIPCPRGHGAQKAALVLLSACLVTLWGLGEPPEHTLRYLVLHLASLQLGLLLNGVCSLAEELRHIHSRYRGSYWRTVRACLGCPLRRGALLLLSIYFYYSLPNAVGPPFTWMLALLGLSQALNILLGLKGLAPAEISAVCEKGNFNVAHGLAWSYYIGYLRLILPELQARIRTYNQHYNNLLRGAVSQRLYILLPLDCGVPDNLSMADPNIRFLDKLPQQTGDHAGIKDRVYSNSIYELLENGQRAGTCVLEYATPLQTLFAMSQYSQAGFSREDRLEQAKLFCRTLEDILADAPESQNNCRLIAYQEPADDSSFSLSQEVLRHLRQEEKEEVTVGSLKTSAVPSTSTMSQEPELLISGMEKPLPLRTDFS
In data set [8] the target is T2, Stimulator of interferon genes protein. The data set can be described thus: Agonist activity at human STING HAQ variant in human THP1-Blue ISG cells assessed as fold change in stimulation activity measured after 24 hrs incubation by QUANTI-Blue based microplate reader. Format: cell-based.
Target sequence in this assay (Q86WV6 whole entry, looked up, stated change not applied): as the sequence (Q86WV6 whole entry) above
Data set [9] can be described thus: Half life in mouse at 10 mg/kg, po by LC-MS/MS analysis. Format: ADME, organism-based. The following applies: in vivo.
A short description of data set [10]: Clearance in mouse at 10 mg/kg, po by LC-MS/MS analysis. Format: ADME, organism-based. The note with it: in vivo.
Data set [11] has as its system MC-38. The data set can be described thus: In vivo antitumor activity against mouse MC-38 cells inoculated in C57BL/6 mouse assessed as complete tumor regression (CR) at 60 mg/kg, po Q3D measured for 15 to 20 days. The note with it: time 15-20 day. Format: functional, organism-based.
Data set [12] is described as follows: Cmax in mouse at 10 mg/kg, po by LC-MS/MS analysis. Format: ADME, organism-based. The following applies: in vivo.
The nature of data set [13]: Half life in mouse at 5 mg/kg, iv by LC-MS/MS analysis. The note with it: in vivo. Format: ADME, organism-based.
The nature of data set [14]: Oral bioavailability in mouse at 10 mg/kg by LC-MS/MS analysis. Format: ADME, organism-based. The following applies: in vivo.
For data set [15], the target named is T2, Stimulator of interferon genes protein. Kind of data set: Agonist activity at STING R232 mutant (unknown origin) expressed in human THP1-Dual cells assessed as fold change in stimulation activity measured after 24 hrs incubation by QUANTI-Luc4 based microplate reader. Format: cell-based.
Target sequence in this assay (Q86WV6 whole entry, looked up, stated change not applied): as the sequence (Q86WV6 whole entry) above

Take `COc1cc2cc(C(=O)CCC(=O)O)sc2cc1OC`: the clearance in data set [1] was 11.5 mL/min/kg. Also, the Cmax stood at 25100 ng/mL in [2] and 13400 ng/mL in [12]. In addition, the exposure (AUC) in data set [3] was 7260 ng·h/mL; in data set [4], 7570 ng·h/mL. Also, the result in the data set on MC-38 [5] and with MC-38 [11] was inactive. Also, the EC50 in data set [6] was determined as 8.1 µM; in data set [8], 4.4 µM; in [15] it was 8.8 µM. Moreover, the 50% inhibitory concentration (IC50) in [7] amounted to 22.5 µM. In addition, the half-life in data set [9] is 90 min; in [13], 18 min. The compound further gave an apparent clearance (CL/F) in data set [10] of 22 mL/min/kg. In [14], this compound registered a bioavailability of 52%.

For orientation: clearance means a measure of how efficiently the substance is removed, as volume per time. A low value points to a low capacity for elimination. The term Cmax denotes the maximum level reached in the sampled fluid or tissue. A word on the AUC: it is concentration integrated over time. A high value points to more exposure. As a reminder, the EC50 is the concentration needed to bring the measured effect to its halfway point. By IC50 is commonly meant the midpoint of a concentration-inhibition curve. A low value points to inhibition by little substance. Usually half-life stands for how long it takes for the measured level to halve. Read a low half-life as rapid decline. Usually CL/F stands for the apparent clearance, not corrected for the fraction that reaches the circulation. By bioavailability is commonly meant the share of a dose that reaches the circulation, judged against a reference dose that is usually intravenous.
